From article PMC8760490, “Discovery of novel furanylbenzamide inhibitors that target oncogenic tyrosine phosphatase SHP2 in leukemia cells” (The Journal of Biological Chemistry, 2021)
Like-named read-outs stand apart in the source and are kept apart here.

Assays:
[1] = tested on: KYSE-520 esophageal cancer cells; experiment: Cell viability (CellTiter-Glo), KYSE-520; type: cell-based; conditions: for effect on KYSE-520 cell growth: various concentrations, 3 days
Protocol: (§1) Inhibition of SHP2 has been reported to inhibit the growth of cancer cells including Kasumi-1 acute myeloid leukemia (AML) and KYSE-520 esophageal cancer cells ([30]). […] Thus, we treated two TNBC cell lines, BT-549 and MDA-MB-468, with SBI-4668 or the SHP2 allosteric inhibitor SHP099 at various concentrations and determined cell viability after 72 h, compared with the vehicle control (Fig. 4C). […] Next, we performed an 11-day colony formation assay with TNBC cells treated with SBI-4668 or SHP099 at 5, 10, or 20 μM (Fig. 4D).
(§2) Viability of AML and esophageal carcinoma cells was assessed using the ATP-depletion assay CellTiter-Glo (Promega). Cells were harvested at 1 × 10^6/ml to 2 × 10^6 cells/ml with cell numbers determined by trypan blue using the Countess Cell counter (Thermo Scientific) and resuspended in culture media. About 3000 cells (in 20 μl) were seeded in a 384-well format white and clear-bottom microplate (catalog no.: 781098; Greiner) spotted with test compound or vehicle control (DMSO) using an Echo 555 Liquid Handler. Cells were incubated for 3 days, before 10 μl of CellTiter-Glo reagent mix was added to each well and incubated for 10 min at RT. Luminescence was read on a Tecan Spark Multimode Microplate Reader, and data were analyzed using GraphPad Prism software.

[2] = molecular target: T1, SHP2 catalytic domain (SHP2cat; residues 248–527) (Homo sapiens, UniProt Q06124); experiment: DiFMUP fluorescence phosphatase inhibition assay, SHP2cat; type: biochemical
T1 construct: the SHP2 catalytic domain (SHP2cat; residues 248–527); made in house
T1 sequence (Q06124 248-527): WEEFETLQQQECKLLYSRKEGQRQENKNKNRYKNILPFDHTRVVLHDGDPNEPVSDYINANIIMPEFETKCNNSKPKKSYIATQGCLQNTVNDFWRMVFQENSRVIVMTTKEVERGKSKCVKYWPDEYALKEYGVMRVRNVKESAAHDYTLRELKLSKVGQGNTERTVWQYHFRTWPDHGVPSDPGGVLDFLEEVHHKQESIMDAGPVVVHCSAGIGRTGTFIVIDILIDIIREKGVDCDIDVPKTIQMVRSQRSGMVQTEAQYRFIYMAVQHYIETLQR
Source text: (§3) To test the synthesized compounds for their potential to inhibit SHP2 activity, a fluorescence intensity-based assay using 6,8-difluoro-4-methylumbelliferyl phosphate (DiFMUP) as the substrate was adapted for three recombinant SHP2 constructs: (1) the SHP2 catalytic domain (SHP2cat; residues 248–527), (2) the full-length SHP2-E76K oncogenic mutant, and (3) the full-length SHP2 WT (SHP2-WT). The recombinant SHP2 proteins were expressed and purified as described previously ([36]). A dually phosphorylated peptide derived from the insulin receptor substrate 1 (IRS-1) served as a surrogate binding protein and was used to activate SHP2-WT ([30], [36]). […] Michaelis–Menten experiments to determine the DiFMUP Michaelis–Menten constant (Km) for each SHP2 construct were performed as described previously ([36]) and yielded the following values: SHP2-WT, Km = 60 μM; SHP2-E76K, Km = 20 μM; and SHP2cat, Km = 20 μM. Relative maximum rates (Vmax) of the DiFMUP reactions expressed as relative fluorescence units per minute (RFU/min) were as follows: SHP2-WT, Vmax = 871 RFU/min; SHP2-E76K, Vmax = 2730 RFU/min; and SHP2cat, Vmax = 2912 RFU/min. IC50 values for each compound were determined from initial rates in 10-point dose–response assays using DiFMUP at a concentration corresponding to its Km value for the respective SHP2 construct. […] Replacements for the benzothiophenone were explored using analog #10.
(§4) Recombinant human full-length SHP2 (1–594) WT and E76K mutants, as well as the SHP2cat (248–527), were expressed and purified as described before ([36], [41]). Recombinant human PTP1B (1–300) and the codon-optimized STEP (280–566) catalytic domains were cloned into PET-15b and expressed as N-His-tagged fusion proteins. For expression, transformed BL21(DE3) cells were grown and induced similar as described for SHP2. Collected cells were resuspended in lysis buffer (25 mM Tris, pH 7.5, 300 mM NaCl, 50 mM imidazole, and 10% glycerol) with 100 mg/l RNaseA and were lysed with two passages using a microfluidizer. The lysate was clarified by centrifugation at 15,000g for 50 min and applied to nickel–nitrilotriacetic acid resin. The column resin was washed, and the PTP1B or STEP protein was eluted in lysis buffer at 300 mM imidazole. The PTP1B or STEP protein was further purified by S75 size-exclusion chromatography in 50 mM Tris, pH 7.5, 50 mM NaCl. The eluted peak fractions were supplemented with tris(2-carboxyethyl)phosphine to 10 mM, concentrated by ultrafiltration, and stored at −80 °C. The purified yield of PTP1B was 33 mg/l cell culture; the yield of STEP was 16 mg/l cell culture.
(§5) SHP2 inhibitors were tested at RT in a 384-well plate format standard phosphatase fluorescence intensity assay using DiFMUP (Invitrogen/Thermo Fisher Scientific) as a substrate and a total reaction volume of 25 μl. SHP2 inhibitors or vehicle (DMSO) were spotted in triplicate into a black Greiner FLUOTRAC 200 384-well microplate (catalog no.: 781076; Greiner) for a 10-point dose–response assay using an Echo 555 Liquid Handler (Labcyte, Inc). PTP working solutions were prepared at a 0.625 nM concentration (for a final concentration of 0.5 nM) in buffer containing 50 mM Bis–Tris, pH 6.0, 50 mM NaCl, 5 mM DTT, and 0.01% Tween-20. Prior to the assay, a dually phosphorylated IRS-1 peptide (625 nM [500 nM final] ([30])) was added to full-length WT SHP2 working solutions and incubated for 20 min. DiFMUP working solutions at 5× final concentration were prepared in 50 mM Bis–Tris, pH 6.0, 50 mM NaCl, and 0.01% Tween-20. About 20 μl of PTP working solution was dispensed into the microplate and incubated with inhibitor for 20 min at RT. […] The reaction was initiated by addition of 5 μl DiFMUP working solutions. Fluorescence intensity was measured in kinetic mode (every minute for 7 or 10 min) using a Tecan Spark Multimode Microplate Reader (Tecan) with an excitation wavelength of 360 nm and an emission wavelength of 460 nm. […]

[3] = molecular target: T2, full-length SHP2 WT (SHP2-WT) (Homo sapiens, UniProt Q06124); experiment: DiFMUP fluorescence phosphatase inhibition assay, SHP2-WT activated with IRS-1 peptide; type: biochemical; conditions: DiFMUP at Km (60 μM), pH 6.0
T2 construct: Recombinant human full-length SHP2 (1–594) WT and E76K mutants; made in house
Source text: as §3, §4, §5

[4] = tested on: Kasumi-1 acute myeloid leukemia (AML) cells; experiment: Cell viability (CellTiter-Glo), Kasumi-1; type: cell-based; conditions: for effect on Kasumi-1 cell growth: various concentrations, 3 days
Protocol: as §1, §2

[5] = DiFMUP at Km (20 μM), pH 6.0, read-out: SHP2cat, IC50
[6] = catalytic domain, DiFMUP at Km, read-out: SHP2 IC50 (Table 2)

Nc1ccc(NC(=O)c2cc(-c3ccc(/C=C4\Sc5ccccc5C4=O)o3)ccc2O)cc1 [SBI-2130, (Z)-N-(4-Aminophenyl)-2-hydroxy-5-(5-((3-oxobenzo[b]thiophen-2(3H)-ylidene)methyl)furan-2-yl)benzamide]
effect on KYSE-520 cell growth [1]: dose-dependently inhibited cancer cell growth
IC50 [2, 5]: 0.22 µM
IC50 [2, 6]: 0.22 µM
IC50 [3]: 5 µM
effect on Kasumi-1 cell growth [4]: dose-dependently inhibited cancer cell growth

N#Cc1cc(-c2ccc(/C=C3\Sc4ccccc4C3=O)o2)ccc1O [SBI-3404, (Z)-2-Hydroxy-5-(5-((3-oxobenzo[b]thiophen-2(3H)-ylidene)methyl)furan-2-yl)benzonitrile]
effect on KYSE-520 cell growth [1]: dose-dependently inhibited cancer cell growth
IC50 [2, 5]: 1.4 µM
IC50 [2, 6]: 1.4 µM
IC50 [3]: 11 µM
effect on Kasumi-1 cell growth [4]: dose-dependently inhibited cancer cell growth

O=C(Nc1ccccc1)c1cc(-c2ccc(/C=C3\Sc4ccccc4C3=O)o2)ccc1O [SBI-4668, (Z)-2-Hydroxy-5-(5-((3-oxobenzo[b]thiophen-2(3H)-ylidene)methyl)furan-2-yl)-N-phenylbenzamide]
IC50 ([1]; Homo sapiens, KYSE-520, 72 h, 3 days in culture): 5.4 µM
effect on KYSE-520 cell growth [1]: dose-dependently inhibited cancer cell growth
IC50 [2, 5]: 0.73 µM
IC50 [2, 6]: 0.73 µM
IC50 [3]: 15 µM
IC50 ([4]; Homo sapiens, Kasumi 1, 72 h, 3 days in culture): 8.5 µM
effect on Kasumi-1 cell growth [4]: dose-dependently inhibited cancer cell growth

O=C1/C(=C/c2ccc(-c3ccc(O)c(-c4nn[nH]n4)c3)o2)Sc2ccccc21 [SBI-3405, (Z)-2-((5-(4-Hydroxy-3-(2H-tetrazol-5-yl)phenyl)furan-2-yl)methylene)benzo[b]thiophen-3(2H)-one]
IC50 [2, 5]: 2 µM
IC50 [2, 6]: 2 µM
IC50 [3]: 4.2 µM

O=C1CCCC1=Cc1ccc(-c2ccc(O)c(C(=O)Nc3ccccc3)c2)o1 [SBI-3192, 2-Hydroxy-5-(5-((2-oxocyclopentylidene)methyl)furan-2-yl)-N-phenylbenzamide]
IC50 [2, 5]: 1.1 µM
IC50 [2, 6]: 1.1 µM
IC50 [3]: 4.1 µM
